This is an account of results in ChEMBL document CHEMBL1151548 (1995).

The structures appear in SMILES notation.

For the assay, the system named is Mus musculus. Nature of the assay: Antimalarial activity against Plasmodium berghei K173 in mice (Mus musculus) by peroral administration using peanut oil. Type of assay: functional.
In the case of `Cc1ccc(NC2O[C@@H]3O[C@@]4(C)CC[C@H]5[C@H](C)CC[C@@H]([C@H]2C)[C@@]35OO4)cc1` (stereo partly specified), the SD50 is 2.77 mg/kg/day and the SD90 worked out at 6.08 mg/kg/day. The matching figures for `C[C@@H]1CC[C@H]2[C@@H](C)C(Nc3cccc(Cl)c3)O[C@@H]3O[C@@]4(C)CC[C@@H]1[C@]32OO4` (stereo partly specified): 1.62 mg/kg/day and 4.8 mg/kg/day.

`C[C@@H]1CC[C@H]2[C@@H](C)C(Nc3cccc(C(=O)O)c3)O[C@@H]3O[C@@]4(C)CC[C@@H]1[C@]32OO4` (stereo partly specified) yielded an SD50 of 2.76 mg/kg/day and an SD90 of 8.23 mg/kg/day. With `C[C@@H]1CC[C@H]2[C@@H](C)C(Nc3ccc(Cl)cc3)O[C@@H]3O[C@@]4(C)CC[C@@H]1[C@]32OO4` (stereo partly specified), the SD50 worked out at 1.77 mg/kg/day and the SD90 turned out to be 4.5 mg/kg/day. The matching figures for `C[C@@H]1CC[C@H]2[C@@H](C)C(Nc3ccc(Br)cc3)O[C@@H]3O[C@@]4(C)CC[C@@H]1[C@]32OO4` (stereo partly specified): 2.7 mg/kg/day and 9.1 mg/kg/day.

`COc1ccc(NC2O[C@@H]3O[C@@]4(C)CC[C@H]5[C@H](C)CC[C@@H]([C@H]2C)[C@@]35OO4)cc1` (stereo partly specified) had an SD50 of 3.5 mg/kg/day and an SD90 of 11.23 mg/kg/day. The matching figures for `C[C@@H]1CC[C@H]2[C@@H](C)C(Nc3cccc(Br)c3)O[C@@H]3O[C@@]4(C)CC[C@@H]1[C@]32OO4` (stereo partly specified): 3.4 mg/kg/day and 5.38 mg/kg/day.

As for `C[C@@H]1CC[C@H]2[C@@H](C)C(=O)O[C@@H]3O[C@@]4(C)CC[C@@H]1[C@]32OO4` [ARTEMISININ], the SD50 came out at 5.13 mg/kg/day.

Compound `C[C@@H]1CC[C@H]2[C@@H](C)C(Nc3ccc(C(=O)O)cc3)O[C@@H]3O[C@@]4(C)CC[C@@H]1[C@]32OO4` (stereo partly specified) came in with an SD50 of 1.36 mg/kg/day and an SD90 of 6.88 mg/kg/day. The matching figures for `C[C@@H]1CC[C@H]2[C@@H](C)C(Nc3ccc(I)cc3)O[C@@H]3O[C@@]4(C)CC[C@@H]1[C@]32OO4` (stereo partly specified): 4.56 mg/kg/day and 11.03 mg/kg/day. Take `C[C@@H]1CC[C@H]2[C@@H](C)C(Nc3ccccc3)O[C@@H]3O[C@@]4(C)CC[C@@H]1[C@]32OO4` (stereo partly specified): the SD50 came to 2.63 mg/kg/day and the SD90 came to 7.3 mg/kg/day.
